The record followed here is ChEMBL document CHEMBL1129043, “Preparation of phenolic paclitaxel metabolites” (J Med Chem, 1996).

The nature of this data set: Ratio of ED50 for cytotoxicity against B16 melanoma to paclitaxel. Particulars: mouse.

Turning to `CC(=O)O[C@H]1C(=O)[C@@]2(C)[C@H]([C@H](OC(=O)c3cccc(O)c3)[C@]3(O)C[C@H](OC(=O)[C@H](O)[C@@H](NC(=O)c4ccccc4)c4ccccc4)C(C)=C1C3(C)C)[C@]1(OC(C)=O)CO[C@@H]1C[C@@H]2O`, the Ratio is over 20.
